Test results taken from US9302012B2, “Anti-bacterial siderophore-aminopenicillin conjugates” (University of Notre Dame Du Lac, priority 2012, dated 2016).
In brackets after ≈: the same amount, converted by molar mass. Read-outs that look alike come from different tables or passages of the source.

Legend:
E. coli ATCC 25922 = experiment: MIC90 by broth microdilution assay; assay type: cell-based, Escherichia coli; conditions: for MIC90: Escherichia coli, ATCC25922, 20 h, E. coli ATCC 25922, 37° C., 20 h
Procedure: (§1) ^aMIC90 values (μM) were determined using the broth microdilution method in Mueller-Hinton broth No. 2 (MHII) with visual end point analysis according to the CLSI guidelines (Methods for Dilution Antimicrobial Susceptibility Tests for Bacteria that Grow Aerobically, 8th ed. (Villanova, Pa., USA), Clinical and Laboratory Standards Institute (CLSI), 2009, approved standard document M07-A7). ^bEach compound was tested in triplicate.
(§2) All liquids and media were sterilized by autoclaving (121° C., 15 min) before use. All aqueous solutions and media were prepared using distilled, deionized, and filtered water (Millipore Milli-Q Advantage A10 Water Purification System). Luria broth (LB) was purchased from VWR. Mueller-Hinton No. 2 broth (MHII broth; cation adjusted) was purchased from Sigma-Aldrich (St. Louis, Mo.). Iron-deficient (—Fe) MHII broth was prepared by adding 0.8 mL of a 1 mg/mL sterile aq. solution of 2,2′-bipyridine to 49.2 mL of MHII broth. Iron-rich (+Fe) MHII broth was prepared by adding 0.8 mL of a 1 mg/mL sterile aq. solution of FeCl3 to 49.2 mL of MHII broth. Mueller-Hinton No. 2 agar (MHII agar; HiMedia Laboratories) was purchased from VWR. Iron-deficient (−Fe) MHII agar was prepared by adding 0.5 mL of a 1 mg/mL sterile aq. solution of 2,2′-bipyridine to 34 mL of melted MHII agar with gentle mixing. Iron-rich (+Fe) MHII agar was prepared by adding 0.5 mL of a 1 mg/mL sterile aq. solution of FeCl3 to 34 mL of melted MHII agar with gentle mixing. See also Wencewicz, T. A. Dissertation, University of Notre Dame, Notre Dame, Ind., 2011, for relevant techniques.
(§3) Determination of MIC90 Values by the Broth Microdilution Assay.
(§4) Antibacterial activity of the compounds was determined by measuring their minimum inhibitory concentrations (MIC90's) using the broth microdilution method according to the Clinical and Laboratory Standards Institute (CLSI, formerly the NCCLS) guidelines. Each well of a 96-well microtiter plate was filled with 50 μL of sterile broth media (−Fe or +Fe). Each test compound was dissolved in DMSO making a 20 mM solution, and then diluted with sterile broth media (−Fe or +Fe) to 400 or 800 μM. Exactly 50 μL of the compound solution was added to the first well of the microtiter plate and 2-fold serial dilutions were made down each row of the plate. Exactly 50 μL of bacterial inoculum (5×10^5 CFU/mL in broth media) was then added to each well giving a total volume of 100 μL/well. The plate was incubated at 37° C. for 20 h and then each well was examined for bacterial growth. The MIC90 was recorded as the lowest compound concentration (μM) required to inhibit 90% of bacterial growth as judged by turbidity of the culture media relative to a row of wells filled with a DMSO standard.

P. aeruginosa Pa6 = experiment: MIC90 by broth microdilution assay; assay type: cell-based, Pseudomonas aeruginosa; conditions: for MIC90: P. aeruginosa Pa6, 37° C., 20 h; for activity against Pa6 (MIC assay, in words): exception among wild type strains
Procedure: as §1, §2, §3, §4

[1] = test system: various wild type strains of P. aeruginosa; experiment: MIC by broth microdilution (text summary over strains); assay type: cell-based; conditions: Pseudomonas aeruginosa, iron-deficient medium, read-out: MICs against various wild type strains of P. aeruginosa
Procedure: as §2

P. aeruginosa PAO1 [2] = experiment: Agar diffusion antibacterial susceptibility assay; assay type: cell-based; conditions: Pseudomonas aeruginosa, PAO1, 24 h, 37° C., read-out: Diameter of growth inhibition zones; for zone of inhibition at 200 µM: 50 μL of 0.2 mM solution; for zone of inhibition at 100 µM: 50 μL of 0.1 mM solution
Procedure: as §2
(§5) Antibacterial Susceptibility Testing by the Agar Diffusion Assay.
(§6) Antibacterial activity of the compounds was determined by a modified Kirby-Bauer agar diffusion assay. Overnight cultures of test organisms were grown in LB broth for 18-24 h and standard suspensions of […] were prepared in saline solution (0.9% NaCl) according to a 0.5 BaSO4 McFarland Standard. This standardized suspension (0.1 mL) was added to 34 mL of sterile, melted agar (−Fe or +Fe) tempered to 47-50° C. After gentle mixing, the inoculated agar media was poured into a sterile plastic petri dish (145 mm×20 mm) and allowed to solidify near a flame with the lid ajar for about 30 min. Wells of 9.0 mm diameter were cut from the petri dish agar and filled with exactly 50 μL of the test sample solution. The petri dish was incubated at 37° C. for 18-24 h and the inhibition zone diameters were measured (mm) with an electronic caliper after 24 h.

P. aeruginosa KW799/61 = experiment: MIC90 by broth microdilution assay; assay type: cell-based; conditions: Pseudomonas aeruginosa, KW799/61, 20 h
Procedure: as §1, §2, §3, §4

P. aeruginosa KW799/wt = experiment: MIC90 by broth microdilution assay; assay type: cell-based; conditions: Pseudomonas aeruginosa, 20 h, 37° C.
Procedure: as §1, §2, §3, §4

P. aeruginosa Pa4 = experiment: MIC90 by broth microdilution assay; assay type: cell-based; conditions: Pseudomonas aeruginosa, PA4, 20 h, 37° C.
Procedure: as §1, §2, §3, §4

[3] = test system: K. pneumoniae ATCC 8303 X68; experiment: MIC90 by broth microdilution assay; assay type: cell-based; conditions: Klebsiella pneumoniae; for MIC90: ATCC8303, 20 h, K. pneumoniae ATCC 8303 X68, 37° C., 20 h; for MIC: ATCC8303, stated as inactive, read-out: MIC against K. pneumoniae
Procedure: as §1, §2, §3, §4

P. aeruginosa PAO1 [4] = experiment: MIC90 by broth microdilution assay; assay type: cell-based; conditions: Pseudomonas aeruginosa, PAO1, 20 h, 37° C.
Procedure: as §1, §2, §3, §4

[5] = test system: E. coli H1876 (fepA−, cir−, fiu−); experiment: Agar diffusion antibacterial susceptibility assay; assay type: cell-based, Escherichia coli; conditions: for Diameter of growth inhibition zones: E. coli H1876 (fepA−, cir−, fiu−), −Fe agar, 37° C., 24 hours; for zone of inhibition at 200 µM: Escherichia coli, 24 h, read-out: Diameter of growth inhibition zones
Procedure: as §2, §5, §6

[6] = −Fe (iron-deficient) MHII broth
[7] = Pseudomonas aeruginosa, +Fe (iron-rich) MHII broth
[8] = read-out: MIC (MIC90), P. aeruginosa KW799/61, +Fe (iron-rich) MHII broth, 37° C.
[9] = read-out: MIC (MIC90), P. aeruginosa KW799/61, −Fe (iron-deficient) MHII broth, 37° C.

| SMILES | MIC90 (E. coli ATCC 25922; +Fe (iron-rich) MHII broth) [µM] | MIC90 (E. coli ATCC 25922; [6]) [µM] | MIC90 (P. aeruginosa Pa6; [6]) [µM] | MIC90 (P. aeruginosa Pa6; [7]) [µM] | MIC [1] [µM] | zone of inhibition at 200 µM (P. aeruginosa PAO1 [2]; +Fe agar) [mm] | zone of inhibition at 200 µM (P. aeruginosa PAO1 [2]; −Fe agar) [mm] | MIC90 (P. aeruginosa KW799/61; [8]) [µM] | MIC90 (P. aeruginosa KW799/61; [9]) [µM] | MIC90 (P. aeruginosa KW799/wt; +Fe (iron-rich) MHII broth) [µM] | MIC90 (P. aeruginosa KW799/wt; [6]) [µM] | MIC90 (P. aeruginosa Pa4; +Fe (iron-rich) MHII broth) [µM] | MIC90 (P. aeruginosa Pa4; [6]) [µM] | MIC90 ([3]; +Fe (iron-rich) MHII broth) [µM] | MIC90 [3, 6] [µM] | MIC90 (P. aeruginosa PAO1 [4]; +Fe (iron-rich) MHII broth) [µM] | MIC90 (P. aeruginosa PAO1 [4]; [6]) [µM] | Diameter of growth inhibition zones ([5]; 50 μL of 0.2 mM solution) | zone of inhibition at 200 µM [5] [mm] | activity against Pa6 (MIC assay, in words) (P. aeruginosa Pa6) | other results |
| --- | --- | --- | --- | --- | --- | --- | --- | --- | --- | --- | --- | --- | --- | --- | --- | --- | --- | --- | --- | --- | --- |
| CC1(C)S[C@@H]2[C@H](NC(=O)[C@H](N)c3ccccc3)C(=O)N2[C@H]1C(=O)O [Ampicillin, reference compound] | 16.7 (≈ 5.84 µg/mL) | 12.5 (≈ 4.37 µg/mL) | >200 | > 200 | > 100 | 0 | 0 | 0.52 (≈ 0.182 µg/mL) | 0.78 (≈ 0.273 µg/mL) | > 200 | > 200 | > 200 | > 100 | > 200 | > 100 | > 200 | > 100 | 0 mm | 0 |  |  |
| CC1(C)S[C@@H]2[C@H](NC(=O)[C@H](N)c3ccc(O)cc3)C(=O)N2[C@H]1C(=O)O [Amoxicillin, reference compound] | 4.17 (≈ 1.52 µg/mL) | 4.17 (≈ 1.52 µg/mL) | >200 | > 200 | > 100 | 0 | 0 | 0.46 (≈ 0.168 µg/mL) | 0.39 (≈ 0.143 µg/mL) | > 200 | > 200 | > 200 | > 100 | 100 (≈ 36.5 µg/mL) | > 100 | > 200 | > 100 | 0 mm | 0 |  |  |
| CC(=O)Oc1cccc(C(=O)NCCCC(CCCNC(=O)c2cccc(OC(C)=O)c2OC(C)=O)(CCCNC(=O)c2cccc(OC(C)=O)c2OC(C)=O)NC(=O)CCC(=O)NC(C(=O)NC2C(=O)N3C2SC(C)(C)C3C(=O)O)c2ccc(O)cc2)c1OC(C)=O (centres unmarked) [Compound 11] | 100 (≈ 131 µg/mL) | 6.25 (≈ 8.19 µg/mL) | >200 | > 200 | 0.05 to 0.39 (≈ 0.0655 to 0.511 µg/mL) | 0 | 19 | 12.5 (≈ 16.4 µg/mL) | 0.083 (≈ 0.109 µg/mL) | 25 (≈ 32.8 µg/mL) | 0.05 (≈ 0.0655 µg/mL) | 25 (≈ 32.8 µg/mL) | 0.21 (≈ 0.275 µg/mL) | > 200 | > 100 | 50 (≈ 65.5 µg/mL) | 0.39 (≈ 0.511 µg/mL) | 14p |  | inactive | potency against E. coli relative to amoxicillin (in words) (E. coli ATCC 25922; MIC compared with parent drug): almost as equipotent as amoxicillin; MIC [3]: > 100 µM |
| CC(=O)Oc1cccc(C(=O)NCCCC(CCCNC(=O)c2cccc(OC(C)=O)c2OC(C)=O)(CCCNC(=O)c2cccc(OC(C)=O)c2OC(C)=O)NC(=O)CCC(=O)NC(C(=O)NC2C(=O)N3C2SC(C)(C)C3C(=O)O)c2ccccc2)c1OC(C)=O (centres unmarked) [Compound 10] | 150 (≈ 194 µg/mL) | 1.56 (≈ 2.02 µg/mL) | >200 | > 200 | 0.05 to 0.39 (≈ 0.0647 to 0.505 µg/mL) |  |  | 12.5 (≈ 16.2 µg/mL) | 0.067 (≈ 0.0867 µg/mL) | 33 (≈ 42.7 µg/mL) | 0.05 (≈ 0.0647 µg/mL) | 25 (≈ 32.4 µg/mL) | 0.39 (≈ 0.505 µg/mL) | > 200 | > 100 | 50 (≈ 64.7 µg/mL) | 0.39 (≈ 0.505 µg/mL) |  |  | inactive | increase in activity against E. coli relative to ampicillin (E. coli ATCC 25922; MIC compared with parent drug): 8 fold; zone of inhibition at 100 µM (P. aeruginosa PAO1 [2]; +Fe agar): 0 mm; zone of inhibition at 100 µM (P. aeruginosa PAO1 [2]; −Fe agar): 16 mm; MIC [3]: > 100 µM; Diameter of growth inhibition zones ([5]; 50 μL of 0.1 mM solution): 0 mm |
